According to patent US12528801B2 (Givaudan SA, priority 2019, dated 2026):

Target: T1, hTRPM8 (Homo sapiens, UniProt Q7Z2W7)
T1 construct: expressed in transfected cells
Test: Assay on TRPM8 modulators: calcium imaging (Fluo-4, Flexstation) in HEK293 cell line stably expressing hTRPM8
Format: cell-based
Conditions: HEK293 cells stably expressing hTRPM8; calcium influx, Fluo-4, Flexstation 3; sigmoidal dose-response fit
Method: A HEK293 cell line stably expressing hTRPM8 was generated according to Klein of at, (Chem. Senses 36: […], 2011) and receptor activation was monitored by calcium imaging in a Flexstation. For Ca-imaging assays of TRPM8 channel activation, cells were seeded on day 0 at a density of 12000 cells per well in Dulbecco's modified Eagle medium (DMEM) containing 9% foetal bovine serum in black, clear bottom 96-well plates that had been coated with 0.001% polyethyleneimine (molecular weight=60 000, Acros Organics). On day 2, agonists were evaluated via calcium imaging using Fluo-4. Briefly, growth medium was discarded, and the cells were incubated in the dark for 1 h at 37° C. in 50 μL loading buffer consisting of 2.7 μM Fluo-4 AM (Invitrogen) and […] probenecid (Sigma-Aldrich) in DMEM (without serum). After incubation, the plates were washed five times with 100 μL of assay buffer (in mM: 130 NaCl, 5 KCl, 10 HEPES, 2 CaCl2, and 10 glucose, pH7.4.) and further incubated in the dark at room temperature for 30 min. The cells were then washed five times with 100 μL assay buffer and then calcium influx to serial dilutions of inventive compounds were measured in a Flexstation 3 (Molecular Devices). Receptor activation was initiated following addition of 20 μl of a 10-fold concentrated ligand stock solution, which is also prepared in assay buffer. Fluorescence was continuously monitored for 15 seconds prior to ligand addition and for 105 seconds after ligand addition, for a total of 120 seconds. Maximal receptor activation in relation to solvent control and relative to 31.6 μM menthol is determined. Data from serial dilutions were processed with a KNIME workflow to fit a sigmoidal dose-response curve and to extrapolate […].

T1 sequence (Q7Z2W7 whole entry): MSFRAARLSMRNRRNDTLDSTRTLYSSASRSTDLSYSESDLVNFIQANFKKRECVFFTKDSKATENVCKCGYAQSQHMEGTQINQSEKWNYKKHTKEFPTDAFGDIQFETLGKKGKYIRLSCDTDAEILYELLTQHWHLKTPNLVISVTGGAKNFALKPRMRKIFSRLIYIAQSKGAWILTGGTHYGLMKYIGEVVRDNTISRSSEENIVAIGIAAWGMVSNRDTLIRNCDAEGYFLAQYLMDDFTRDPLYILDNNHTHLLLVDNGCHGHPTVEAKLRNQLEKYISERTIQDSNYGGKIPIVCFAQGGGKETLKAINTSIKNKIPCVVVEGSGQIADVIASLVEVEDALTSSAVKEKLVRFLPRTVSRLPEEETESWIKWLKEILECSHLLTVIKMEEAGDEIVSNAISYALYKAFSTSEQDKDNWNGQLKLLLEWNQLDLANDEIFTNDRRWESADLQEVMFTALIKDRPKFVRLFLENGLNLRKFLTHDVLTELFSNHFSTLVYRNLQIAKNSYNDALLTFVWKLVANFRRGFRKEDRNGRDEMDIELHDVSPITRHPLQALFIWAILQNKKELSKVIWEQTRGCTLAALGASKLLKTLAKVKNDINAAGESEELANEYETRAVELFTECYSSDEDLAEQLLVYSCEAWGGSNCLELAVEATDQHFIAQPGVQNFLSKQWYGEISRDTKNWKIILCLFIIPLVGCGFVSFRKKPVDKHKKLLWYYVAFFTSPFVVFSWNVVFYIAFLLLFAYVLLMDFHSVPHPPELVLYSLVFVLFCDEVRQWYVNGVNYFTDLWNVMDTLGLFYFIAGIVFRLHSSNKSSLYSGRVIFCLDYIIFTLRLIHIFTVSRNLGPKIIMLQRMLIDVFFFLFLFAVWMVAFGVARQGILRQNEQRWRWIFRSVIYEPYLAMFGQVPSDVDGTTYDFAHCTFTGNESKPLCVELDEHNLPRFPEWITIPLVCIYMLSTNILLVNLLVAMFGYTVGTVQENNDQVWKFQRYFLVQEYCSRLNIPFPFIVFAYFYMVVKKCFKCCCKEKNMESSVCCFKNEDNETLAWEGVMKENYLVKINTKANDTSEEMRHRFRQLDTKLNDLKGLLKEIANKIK

Row | Compound | EC50 [nM]
1 | CSC(C)C(=O)N1CCCCC1c1ncc(-c2ccc(C#N)c(F)c2)[nH]1 (stereo not shown) [Compound 156, 2-fluoro-4-(2-(1-(2-(methylthio)propanoyl)piperidin-2-yl)-1H-imidazol-5-yl)benzonitrile] | < 50
2 | CSC(C)C(=O)N1CCCCC1c1ncc(-c2cccc([N+](=O)[O-])c2)[nH]1 (stereo not shown) [Compound 190, 2-(methylthio)-1-(2-(5-(3-nitrophenyl)-1H-imidazol-2-yl)piperidin-1-yl)propan-1-one] | < 50
3 | CCC(C)C(=O)N1CCCCC1c1ncc(-c2ccc(CO)cc2)[nH]1 (stereo not shown) [Compound 202, 1-(2-(5-(4-(hydroxymethyl)phenyl)-1H-imidazol-2-yl)piperidin-1-yl)-2-methylbutan-1-one] | 50 to 300
4 | CSC(C)C(=O)N1CCCCC1c1nc(-c2cnn(C)c2)c[nH]1 (stereo not shown) [Compound 16, 1-(2-(4-(1-methyl-1H-pyrazol-4-yl)-1H-imidazol-2-yl)piperidin-1-yl)-2-(methylthio)propan-1-one] | 300 to 1000
5 | COc1ccc(-c2cnc(C3CCCCN3C(=O)C(C)SC)[nH]2)cn1 (stereo not shown) [Compound 84, 1-(2-(5-(6-methoxypyridin-3-yl)-1H-imidazol-2-yl)piperidin-1-yl)-2-(methylthio)propan-1-one] | 50 to 300
6 | CSC(C)C(=O)N1CCCCC1c1nc(C)c(-c2ccccc2)[nH]1 (stereo not shown) [Compound 47, 1-(2-(4-methyl-5-phenyl-1H-imidazol-2-yl)piperidin-1-yl)-2-(methylthio)propan-1-one] | 50 to 300
7 | CCC(C)C(=O)N1CCCCC1c1ncc(-c2ccc(Cl)cc2)[nH]1 (stereo not shown) [Compound 195, 1-(2-(5-(4-chlorophenyl)-1H-imidazol-2-yl)piperidin-1-yl)-2-methylbutan-1-one] | < 50
8 | CSC(C)C(=O)N1CCCCCC1c1ncc(-c2ccc(C)cc2)[nH]1 (stereo not shown) [Compound 129, 2-(methylthio)-1-(2-(5-(p-tolyl)-1H-imidazol-2-yl)azepan-1-yl)propan-1-one] | < 50
9 | CC[C@H](C)C(=O)N1CCCC[C@@H]1c1ncc(-c2ccc(C)cc2)[nH]1 [Compound 165, (S)-2-methyl-1-((R)-2-(5-(p-tolyl)-1H-imidazol-2-yl)piperidin-1-yl)butan-1-one] | < 50
10 | CSC(C)C(=O)N1CCCCC1c1nnc(-c2ccccc2)[nH]1 (stereo not shown) [Compound 137, 2-(methylthio)-1-(2-(5-phenyl-4H-1,2,4-triazol-3-yl)piperidin-1-yl)propan-1-one] | 50 to 300
11 | CSC(C)C(=O)N1CCCCC1c1ncc(Cc2ccccc2)[nH]1 (stereo not shown) [Compound 87, 1-(2-(5-benzyl-1H-imidazol-2-yl)piperidin-1-yl)-2-(methylthio)propan-1-one] | 1000 to 35000
12 | CCC(C)C(=O)N1CCCCC1c1nc(-c2ccccc2)c[nH]1 (stereo not shown) [Compound 161, 2-methyl-1-(2-(4-phenyl-1H-imidazol-2-yl)piperidin-1-yl)butan-1-one] | 50 to 300
13 | CC(C)CC(=O)N1CCCCC1c1nc(-c2ccccc2)c[nH]1 (stereo not shown) [Compound 180, 3-methyl-1-(2-(4-phenyl-1H-imidazol-2-yl)piperidin-1-yl)butan-1-one] | 1000 to 35000
14 | CCC(C)C(=O)N1CCCCC1c1ncc(-c2ccc(C)s2)[nH]1 (stereo not shown) [Compound 205, 2-methyl-1-(2-(5-(5-methylthiophen-2-yl)-1H-imidazol-2-yl)piperidin-1-yl)butan-1-one] | < 50
15 | CSc1cc(C)c(-c2cnc(C3CCCCN3C(=O)C(C)SC)[nH]2)cn1 (stereo not shown) [Compound 82, 1-(2-(5-(4-methyl-6-(methylthio)pyridin-3-yl)-1H-imidazol-2-yl)piperidin-1-yl)-2-(methylthio)propan-1-one] | 300 to 1000
16 | C=Cc1ccc(-c2cnc(C3CCCCN3C(=O)C(C)SC)[nH]2)cc1 (stereo not shown) [Compound 126, 2-(methylthio)-1-(2-(5-(4-vinylphenyl)-1H-imidazol-2-yl)piperidin-1-yl)propan-1-one] | < 50
17 | C/C=C(\C)C(=O)N1CCCCC1c1ncc(-c2ccc(C)cc2)[nH]1 (stereo not shown) [Compound 9, (E)-2-methyl-1-(2-(5-(p-tolyl)-1H-imidazol-2-yl)piperidin-1-yl)but-2-en-1-one] | < 50
18 | CNc1cccc(-c2cnc(C3CCCCN3C(=O)C(C)SC)[nH]2)c1 (stereo not shown) [Compound 59, 1-(2-(5-(3-(methylamino)phenyl)-1H-imidazol-2-yl)piperidin-1-yl)-2-(methylthio)propan-1-one] | 50 to 300
19 | Cc1ccc(-c2cnc(C3CCCCN3S(=O)(=O)C(C)C)[nH]2)cc1 (stereo not shown) [Compound 203, 1-(isopropylsulfonyl)-2-(5-(p-tolyl)-1H-imidazol-2-yl)piperidine] | 300 to 1000

Row | Compound | EC50 [nM]
20 | Cc1ccc(-c2cnc(C3CCCCN3C(=O)C(C)C(C)C)[nH]2)cc1 (stereo not shown) [Compound 199, 2,3-dimethyl-1-(2-(5-(p-tolyl)-1H-imidazol-2-yl)piperidin-1-yl)butan-1-one] | < 50
21 | CSC(C)C(=O)N1CCCCC1c1ncc(-c2ccc(C)cc2)o1 (stereo not shown) [Compound 133, 2-(methylthio)-1-(2-(5-(p-tolyl)oxazol-2-yl)piperidin-1-yl)propan-1-one] | < 50
22 | CC(C)C(=O)N1CCCCC1c1nc(-c2ccccc2)c[nH]1 (stereo not shown) [Compound 162, 2-methyl-1-(2-(4-phenyl-1H-imidazol-2-yl)piperidin-1-yl)propan-1-one] | 300 to 1000
23 | CSC(C)C(=O)N1CCCCC1c1nc(-c2cnc(C3CC3)o2)c[nH]1 (stereo not shown) [Compound 22, 1-(2-(4-(2-cyclopropyloxazol-5-yl)-1H-imidazol-2-yl)piperidin-1-yl)-2-(methylthio)propan-1-one] | 50 to 300
24 | CCC(=O)N1CCCCC1c1ncc(-c2ccc(C)cc2)[nH]1 (stereo not shown) [Compound 86, 1-(2-(5-(p-tolyl)-1H-imidazol-2-yl)piperidin-1-yl)propan-1-one] | 50 to 300
25 | CSC(C)C(=O)N1CCCCC1c1nc(-c2ccc3c(c2)OC(F)(F)O3)c[nH]1 (stereo not shown) [Compound 17, 1-(2-(4-(2,2-difluorobenzo[d][1,3]dioxol-5-yl)-1H-imidazol-2-yl)piperidin-1-yl)-2-(methylthio)propan-1-one] | < 50
26 | COc1ncc(-c2cnc(C3CCCCN3C(=O)C(C)SC)[nH]2)cn1 (stereo not shown) [Compound 58, 1-(2-(5-(2-methoxypyrimidin-5-yl)-1H-imidazol-2-yl)piperidin-1-yl)-2-(methylthio)propan-1-one] | 300 to 1000
27 | CSC(C)C(=O)N1CCCCC1c1nc(-c2ccccc2)no1 (stereo not shown) [Compound 105, 2-(methylthio)-1-(2-(3-phenyl-1,2,4-oxadiazol-5-yl)piperidin-1-yl)propan-1-one] | 300 to 1000
28 | COc1ccc(-c2cnc(C3CCCCN3C(=O)C(C)SC)[nH]2)cc1 (stereo not shown) [Compound 81, 1-(2-(5-(4-methoxyphenyl)-1H-imidazol-2-yl)piperidin-1-yl)-2-(methylthio)propan-1-one] | < 50
29 | Cc1ccc(-c2cnc(C3CCCCN3C(=O)C3CC3(C)C)[nH]2)cc1 (stereo not shown) [Compound 193, (2,2-dimethylcyclopropyl)(2-(5-(p-toly)-1H-imidazol-2-yl)piperidin-1-yl)methanone] | < 50
30 | CSC(C)C(=O)N1CCCCC1c1nc(-c2ccc(C3CCC3)cc2)c[nH]1 (stereo not shown) [Compound 36, 1-(2-(4-(4-cyclobutylphenyl)-1H-imidazol-2-yl)piperidin-1-yl)-2-(methylthio)propan-1-one] | < 50
31 | CC1CC(C(=O)N2CCCCC2c2nc(-c3ccccc3)c[nH]2)CO1 (stereo not shown) [Compound 7, (5-methyltetrahydrofuran-3-yl)(2-(4-phenyl-1H-imidazol-2-yl)piperidin-1-yl)methanone] | 1000 to 35000
32 | CSC(C)C(=O)N1CCCCC1c1nc(-c2occc2C)c[nH]1 (stereo not shown) [Compound 29, 1-(2-(4-(3-methylfuran-2-yl)-1H-imidazol-2-yl)piperidin-1-yl)-2-(methylthio)propan-1-one] | 50 to 300
33 | CSC(C)C(=O)N1CCCCC1c1ncc(-c2ccc(OC(F)(F)F)cc2)[nH]1 (stereo not shown) [Compound 123, 2-(methylthio)-1-(2-(5-(4-(trifluoromethoxy)phenyl)-1H-imidazol-2-yl)piperidin-1-yl)propan-1-one] | < 50
34 | CS[C@@H](C)C(=O)N1CCCC[C@@H]1c1ncc(-c2ccc(C)cc2)[nH]1 [Compound 12, (S)-2-(methylthio)-1-((R)-2-(5-(p-tolyl)-1H-imidazol-2-yl)piperidin-1-yl)propan-1-one] | < 50
35 | CSC(C)C(=O)N1CCCCC1c1nc(-c2cncc(C)c2)c[nH]1 (stereo not shown) [Compound 44, 1-(2-(4-(5-methylpyridin-3-yl)-1H-imidazol-2-yl)piperidin-1-yl)-2-(methylthio)propan-1-one] | 50 to 300
36 | COc1ccc(-c2cnc(C3CCCCN3C(=O)C(C)SC)[nH]2)cc1OC (stereo not shown) [Compound 62, 1-(2-(5-(3,4-dimethoxyphenyl)-1H-imidazol-2-yl)piperidin-1-yl)-2-(methylthio)propan-1-one] | 1000 to 35000
37 | CSC(C)C(=O)N1CCCCC1c1nc(-c2ccc(OC(F)F)c(F)c2)c[nH]1 (stereo not shown) [Compound 32, 1-(2-(4-(4-(difluoromethoxy)-3-fluorophenyl)-1H-imidazol-2-yl)piperidin-1-yl)-2-(methylthio)propan-1-one] | < 50
